Laboratory results from ChEMBL document CHEMBL1201862, “PubChem BioAssay data set” (2004).
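Protocol summary: plate cells (96-well), add compound at 5 concentrations, incubate 48 h, interpolate endpoints linearly. Abbreviation: GI50, concentration required for 50% inhibition of growth.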 Active and inactive are the calls of the source. Cut-off read from the data, not from the text of the source: active = GI50 up to about 1.1 µM and inactive = higher.

Tests used:
Experiment in all cases: NCI-60 cell line screen, 48 h
[1] = system: OVCAR-4
[2] = system: OVCAR-8
[3] = system: HCC 2998
[4] = system: HOP-62
[5] = system: CAKI-1
[6] = system: RPMI-8226
[7] = system: HL-60
[8] = system: NCI/ADR-RES
[9] = system: MDA-N
[10] = system: NCI-H460
[11] = system: SW-620
[12] = system: SK-MEL-28
[13] = system: Hs-578T
[14] = system: DU-145
[15] = system: M14
[16] = system: HT-29
[17] = system: COLO 205
[18] = system: HOP-92
[19] = system: NCI-H226
[20] = system: SN12C
[21] = system: OVCAR-5
[22] = system: BT-549
[23] = system: MOLT-4
[24] = system: K562
[25] = system: HCT-15
[26] = system: SNB-75
[27] = system: PC-3
[28] = system: MDA-MB-231
[29] = system: T47D
[30] = system: U-251
[31] = system: SF-295
[32] = system: HCT-116
[33] = system: NCI-H23
[34] = system: 786-0
[35] = system: LOX IMVI
[36] = system: UO-31
[37] = system: SK-MEL-5
[38] = system: MDA-MB-435
[39] = system: A549
[40] = system: MCF7
[41] = system: ACHN
[42] = system: EKVX
[43] = system: UACC-257
[44] = system: TK-10
[45] = system: A498
[46] = system: SK-OV-3
[47] = system: Malme-3M
[48] = system: SF-268
[49] = system: IGROV-1
[50] = system: SF-539
[51] = system: CCRF-CEM
[52] = system: KM12
[53] = system: SNB-19
[54] = system: SK-MEL-2
[55] = system: RXF 393
[56] = system: UACC-62
[57] = system: OVCAR-3
[58] = system: NCI-H522

With `CCCCOC(=O)C1CN2C=CC=NC2=NC1(C(F)(F)F)C(F)(F)F` (stereo not given) the GI50 [1] was > 100 µM (inactive), the GI50 [2] was > 100 µM (inactive) and the GI50 [3] was > 100 µM (inactive). For the same molecule, the GI50 [4] was > 100 µM (inactive), the GI50 [5] was > 100 µM (inactive) and the GI50 [6] was > 100 µM (inactive). For the same molecule, the GI50 [7] was > 100 µM (inactive), the GI50 [8] was > 100 µM (inactive) and the GI50 [9] was > 100 µM (inactive). For the same molecule, the GI50 [10] was > 100 µM (inactive), the GI50 [11] was > 100 µM (inactive) and the GI50 [12] was > 100 µM (inactive). The GI50 [13] was > 100 µM (inactive), the GI50 [14] was > 100 µM (inactive) and the GI50 [15] was > 100 µM (inactive). For the same molecule, the GI50 [16] was > 100 µM (inactive), the GI50 [17] was > 100 µM (inactive) and the GI50 [18] was > 100 µM (inactive). For the same molecule, the GI50 [19] was > 100 µM (inactive), the GI50 [20] was > 100 µM (inactive) and the GI50 [21] was > 100 µM (inactive). The GI50 [22] was > 100 µM (inactive), the GI50 [23] was > 100 µM (inactive) and the GI50 [24] was > 100 µM (inactive). The GI50 [25] was greater than 100 µM, the GI50 [26] was > 100 µM (inactive) and the GI50 [27] was > 100 µM (inactive). The GI50 [28] was > 100 µM (inactive), the GI50 [29] was > 100 µM (inactive) and the GI50 [30] was > 100 µM (inactive). The GI50 [31] was > 100 µM (inactive), the GI50 [32] was > 100 µM (inactive) and the GI50 [33] was > 100 µM (inactive). The GI50 [34] was > 100 µM (inactive), the GI50 [35] was > 100 µM (inactive) and the GI50 [36] was > 100 µM (inactive). The GI50 [37] was > 100 µM (inactive), the GI50 [38] was > 100 µM (inactive) and the GI50 [39] was > 100 µM (inactive). For the same molecule, the GI50 [40] was > 100 µM (inactive), the GI50 [41] was > 100 µM (inactive) and the GI50 [42] was 72.6 µM (inactive). For the same molecule, the GI50 [43] was > 100 µM (inactive), the GI50 [44] was > 100 µM (inactive) and the GI50 [45] was > 100 µM (inactive). The GI50 [46] was > 100 µM (inactive), the GI50 [47] was > 100 µM (inactive) and the GI50 [48] was > 100 µM (inactive). For the same molecule, the GI50 [49] was > 100 µM (inactive), the GI50 [50] was > 100 µM (inactive) and the GI50 [51] was > 100 µM (inactive). For the same molecule, the GI50 [52] was > 100 µM (inactive), the GI50 [53] was > 100 µM (inactive) and the GI50 [54] was > 100 µM (inactive). For the same molecule, the GI50 [55] was > 100 µM (inactive), the GI50 [56] was > 100 µM (inactive) and the GI50 [57] was > 100 µM (inactive).
`CCCCCCCCCCOc1ccc(/N=N/c2nnc(-c3ccc(OCCCCC)cc3)s2)cc1` was tested, and the GI50 [1] was > 100 µM (inactive), the GI50 [2] was > 100 µM (inactive) and the GI50 [3] was > 100 µM (inactive). For the same molecule, the GI50 [4] was > 100 µM (inactive), the GI50 [5] was > 100 µM (inactive) and the GI50 [6] was > 100 µM (inactive). For the same molecule, the GI50 [8] was > 100 µM (inactive), the GI50 [9] was > 100 µM (inactive) and the GI50 [10] was > 100 µM (inactive). The GI50 [11] was > 100 µM (inactive), the GI50 [12] was > 100 µM (inactive) and the GI50 [13] was > 100 µM (inactive). The GI50 [14] was > 100 µM (inactive), the GI50 [15] was > 100 µM (inactive) and the GI50 [16] was > 100 µM (inactive). For the same molecule, the GI50 [17] was > 100 µM (inactive), the GI50 [18] was > 100 µM (inactive) and the GI50 [20] was > 100 µM (inactive). The GI50 [21] was > 100 µM (inactive), the GI50 [22] was > 100 µM (inactive) and the GI50 [23] was > 100 µM (inactive). The GI50 [24] was > 100 µM (inactive), the GI50 [25] was greater than 100 µM and the GI50 [27] was > 100 µM (inactive). The GI50 [28] was > 100 µM (inactive), the GI50 [29] was > 100 µM (inactive) and the GI50 [30] was > 100 µM (inactive). For the same molecule, the GI50 [31] was 62.5 µM (inactive), the GI50 [32] was > 100 µM (inactive) and the GI50 [33] was > 100 µM (inactive). The GI50 [34] was > 100 µM (inactive), the GI50 [35] was > 100 µM (inactive) and the GI50 [37] was > 100 µM (inactive). For the same molecule, the GI50 [38] was 34.5 µM (inactive), the GI50 [39] was > 100 µM (inactive) and the GI50 [40] was 39.2 µM (inactive). The GI50 [41] was 93.5 µM (inactive), the GI50 [42] was > 100 µM (inactive) and the GI50 [43] was 49.9 µM (inactive). For the same molecule, the GI50 [44] was > 100 µM (inactive), the GI50 [45] was 49.4 µM (inactive) and the GI50 [46] was > 100 µM (inactive). For the same molecule, the GI50 [47] was > 100 µM (inactive), the GI50 [48] was > 100 µM (inactive) and the GI50 [49] was > 100 µM (inactive). For the same molecule, the GI50 [50] was > 100 µM (inactive), the GI50 [51] was > 100 µM (inactive) and the GI50 [58] was > 100 µM (inactive). The GI50 [52] was 62.4 µM (inactive), the GI50 [53] was > 100 µM (inactive) and the GI50 [55] was 65 µM (inactive). The GI50 [56] was 48 µM (inactive) and the GI50 [57] was 97.3 µM (inactive).
